Publication PMC5648829 (Scientific Reports, 2017)
Several values for one entry are separate records, joined by “and”; a condition that tells them apart may be missing. Equal entries are not always repeated. Where a SMILES comes first, the peptide text is derived from it.

How the values were obtained:
LTA4H [1] = biological target: T1, LTA4H (Homo sapiens, UniProt P09960); test: LTA4H aminopeptidase assay with surrogate substrate Ala-AMC; format: biochemical; design: Full-length LTA4H containing a N-terminal (His)6-tag; (His)6-tag (N, cleaved yes); (Gly3-Ser)3 spacer (N, cleaved yes); made in house; host or cells: E. coli BL21 (DE3) star; details: for Effect on Ala-AMC hydrolysis: Table 1, whether compound increased or inhibited hydrolysis of Ala-AMC by the enzyme; for IC50: Table 2
T1 sequence (P09960 1-611): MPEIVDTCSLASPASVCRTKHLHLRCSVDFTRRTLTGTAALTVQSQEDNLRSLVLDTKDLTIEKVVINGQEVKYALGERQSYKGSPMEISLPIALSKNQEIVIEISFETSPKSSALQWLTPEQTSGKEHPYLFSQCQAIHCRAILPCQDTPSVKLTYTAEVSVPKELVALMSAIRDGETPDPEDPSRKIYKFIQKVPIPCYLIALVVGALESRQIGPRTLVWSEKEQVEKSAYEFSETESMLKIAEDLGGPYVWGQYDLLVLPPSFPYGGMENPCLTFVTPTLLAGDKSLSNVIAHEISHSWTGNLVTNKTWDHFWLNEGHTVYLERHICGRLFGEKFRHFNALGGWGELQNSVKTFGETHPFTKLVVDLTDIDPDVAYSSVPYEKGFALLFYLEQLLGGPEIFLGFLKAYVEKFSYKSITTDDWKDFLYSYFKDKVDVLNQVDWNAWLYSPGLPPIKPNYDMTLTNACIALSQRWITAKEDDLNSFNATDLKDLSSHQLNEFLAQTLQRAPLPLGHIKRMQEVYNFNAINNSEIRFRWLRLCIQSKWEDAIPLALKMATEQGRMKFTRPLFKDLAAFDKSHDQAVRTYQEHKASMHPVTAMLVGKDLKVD
Description: (§1) The LTA4H aminopeptidase assays were run using several surrogate substrates: Arg-Rho110-D-Pro (Arg-Rho, Biosyntan GmbH, Germany) or Arg-AMC (Bachem, Switzerland), Pro-AMC (Bachem, Switzerland) and Ala-AMC (Bachem, Switzerland). Assays were performed at RT in 1536-well plates in Tris buffer, pH 7.2 containing NaCl (100 mM), CaCl2 (2 mM), CHAPS (0.5%) and BSA (0.1%). […] The reaction was incubated between 1–2 h (depending on substrate) prior to reading the increase in fluorescence on an EnVision.

LTA4H [2] = biological target: T1, LTA4H; test: LTA4H aminopeptidase assay with surrogate substrate Pro-AMC; format: biochemical; design: Full-length LTA4H containing a N-terminal (His)6-tag; (His)6-tag (N, cleaved yes); (Gly3-Ser)3 spacer (N, cleaved yes); made in house; host or cells: E. coli BL21 (DE3) star
Description: as §1

LTA4H [3] = biological target: T1, LTA4H; test: PGP peptidolysis assay by LC-MS/MS; format: biochemical; design: Full-length LTA4H containing a N-terminal (His)6-tag; (His)6-tag (N, cleaved yes); (Gly3-Ser)3 spacer (N, cleaved yes); made in house; host or cells: E. coli BL21 (DE3) star
Description: The aminopeptidase activity of LTA4H was assessed with H-PGP-OH (Bachem, Switzerland) as substrate. Assays were performed at RT in black 384-well low volume plates (Greiner) and analyzed by LC-MS/MS. All compounds were tested as 8 point dose response curves in triplicates included on every plate. 3 µl of compound diluted in assay buffer (Tris (50 mM), NaCl (150 mM), CaCl2 (10 mM) at pH7.5) was transferred to the plate followed by 3 µl of enzyme solution (20 nM LTA4H in assay buffer). The enzyme compound mixture was incubated at room temperature for 15 min prior to the addition of 6 µl substrate solution (800 µM PGP in assay buffer). Upon addition of the substrate, the plate was placed on a shaker at 25 °C for 40 min. The reaction was stopped by addition of 12 µl formic acid (0.2% v/v). The final concentration of the enzyme in the assay was 5 nM, the PGP 400 µM and the compound concentration range was from 50000 nM to 3.2 nM. For peptide quantification, an HPLC instrument from Agilent Series 1290 (binary high pressure gradient system) with detectors UV, fluorescence and mass (single Quad) detectors was used. HPLC was done using an Atlantis T3 column (C18 100 × 2.1mm, […], 100 Å) with A: water (MQ) + 0.1% formic acid and B: acetonitrile + 0.1% formic acid: 0–0.3 min 0% buffer B, then increased to 100% buffer B at 0.31–0.65 min and again decreased to 0% buffer B at 0.66–0.70 min. Flow was set to 1.5 ml/min with start gradient pressure of 400 bar.

LTA4H [4] = biological target: T1, LTA4H; test: LTA4H aminopeptidase assay with surrogate substrate Arg-AMC; format: biochemical; design: Full-length LTA4H containing a N-terminal (His)6-tag; (His)6-tag (N, cleaved yes); (Gly3-Ser)3 spacer (N, cleaved yes); made in house; host or cells: E. coli BL21 (DE3) star
Description: as §1

[5] = PGP degradation assay in BALF ex-vivo (LC-MS/MS); format: in vitro ADME, mouse; details: BALF of wt and LTA4H-KO mice, 24 h at 37 °C, compared with PBS
Description: 200 µl of BALF were spiked with PGP and Ac-PGP at the final concentration of 10 nM. […] After incubation, samples were filtered (Amicon Ultra-0.5, Membrane Ultracel-30, PMNL 30 kD) by centrifugation (3 min at 10,000 × g). Filtered samples were transferred to vials for liquid chromatography tandem mass spectrometry (LC-MS/MS) analysis. The LC system consisted of an Acquity UPLC I-Class interfaced with a Xevo-TQS triple quadruple MS (Waters). […] PGP was monitored with MRM m/z transitions of 270.1 > 173.1 (quantifier) and 270.1 > 70.1 and 270.1 > 116.1 (qualifiers). Ac-PGP was monitored with m/z transitions of 312.2 > 112.1 (quantifier) and 312.2 > 116.1 and 312.2 > 140.1 (qualifiers).

human neutrophils [6] = test: Human neutrophil shape change assay; format: cell-based; details: isolated human neutrophils
Description: Neutrophils were purified by Ficoll density gradient centrifugation from human blood and incubated with graded concentrations of PGP, Ac-PGP or the known neutrophil chemoattractant GROα in assay buffer containing BSA (0.1%) in PBS for 10 min at 37 °C, 5% CO2 and 90% humidity. Cells were then fixed and shape change analyzed by flow cytometry.

human neutrophils [7] = test: Human neutrophil chemotaxis assay; format: cell-based
Description: Purified human neutrophils were labeled with calcein-AM (Fluka, Buchs, Switzerland). Test compounds (PGP, Ac-PGP, RTR, and Ac-RTR) or IL-8 (Sigma) as positive chemoattractant control were diluted in RPMI containing BSA (0.1%) and added at graded concentrations into the wells of a 96-well ChemoTX plate (3.2 mm diameter, 5 µm pore size; NeuroProbe, Gaithersburg, MD). Labeled cells (50,000 per well) were added onto the filters above the wells that received the test compounds. Plates were incubated for 90 min at 37 °C. The filters were removed and fluorescence in the receiving wells was measured using a SpectraMAX Gemini EM instrument (Molecular Devices, Sunnyvale, CA; λex = 485 nm; λem = 538 nm). The chemotactic index was measured as the ratio of fluorescence in the test wells and in control (buffer only) wells.

[8] = Table 1, read-out: IC50 Pro-AMC
[9] = Table 1, average of minimum two biological replicates, read-out: IC50 Arg-AMC
[10] = Table 2, read-out: IC50 Pro-AMC
[11] = Table 2, read-out: IC50 Arg-AMC

| Compound | Effect on Ala-AMC hydrolysis (LTA4H [1]) | IC50 (LTA4H [2]; [8]) | Ratio IC50 PGP/Arg-AMC (LTA4H [3]; Table 1) | IC50 (LTA4H [3]; Table 1, read-out: IC50 PGP) | IC50 (LTA4H [4]; [9]) | other results |
| --- | --- | --- | --- | --- | --- | --- |
| COc1ccc(Cc2ccccc2)cc1 [4-MDM, 4-Methoxydiphenylmethane, reference compound] | increase | 33600 nM | 0.42 | 4220 nM | 10100 nM |  |
| Nc1nc(-c2ccc(Cc3ccccc3)cc2)cs1 [ARM-1, 4-(4-benzylphenyl) thiazol-2-amine, reference compound] | increase | 1030 nM | 0.40 | 390 nM | 970 nM |  |
| CC(=O)N1CCC[C@H]1C(=O)NCC(=O)N1CCC[C@H]1C(=O)O [Ac-PGP, N-acetly-Pro-Gly-Pro] (Ac-Pro-Gly-Pro-OH) |  |  |  |  |  | Ac-PGP stability in exudates [5]: remained as stable over 24 h at 37 °C as in PBS |
| c1ccc(Cc2ccc(-c3c[nH]cn3)cc2)cc1 [Compound 2, 4-(4-benzylphenyl)-1H-imidazole] | increase | 280 nM | 1.4 | 380 nM | 270 nM |  |
| c1ccc(Oc2ccc(-c3c[nH]cn3)cc2)cc1 [Compound 6, 5-(4-phenoxyphenyl)-1H-imidazole] |  |  |  |  |  | IC50 (LTA4H [2]): 77 nM; IC50 (LTA4H [3]): 45 nM; IC50 (LTA4H [4]): 64 nM |
| Cn1cnc(-c2ccc(Oc3ccccc3)cc2)c1 [Compound 7, 1-methyl-4-(4-phenoxyphenyl)-1H-imidazole] | increase | 1690 nM | 0.49 | 1400 nM | 2870 nM |  |
| Oc1cc(-c2ccc(Oc3ccccc3)cc2)n[nH]1 [Compound 8, 3-(4-phenoxyphenyl)-1H-pyrazol-5-ol] | increase | 1350 nM | 1.44 | 1870 nM | 1300 nM |  |
| c1ccc(Oc2ccc(-c3cc[nH]c3)cc2)cc1 [Compound 9, 3-(4-phenoxyphenyl)-1H-pyrrole] | increase | 470 nM | 0.07 | 35 nM | 480 nM |  |
| OCc1ccc(Oc2nc3ccccc3s2)cc1 [Compound 14] |  |  |  |  |  | IC50 (LTA4H [1]): > 25000 nM; IC50 (LTA4H [2]; [10]): 152 nM; Ratio IC50 PGP/Arg-AMC (LTA4H [3]; Table 2, fold selectivity): 0.34; IC50 (LTA4H [3]; Table 2, read-out: IC50 PGP): 76 nM; IC50 (LTA4H [4]; [11]): 225 nM |
| O=Cc1ncc(Oc2nc3ccccc3s2)cn1 [Compound 16] |  |  |  |  |  | IC50 (LTA4H [1]): > 25000 nM; IC50 (LTA4H [2]; [10]): 15700 nM; IC50 (LTA4H [3]; Table 2, read-out: IC50 PGP): 11200 nM; IC50 (LTA4H [4]; [11]): 2580 nM |
| O=Cc1ccc(Oc2nc3ncccc3s2)cn1 [Compound 17, 5-(thiazolo[4,5-b]pyridin-2-yloxy)picolinaldehyde] |  |  |  |  |  | IC50 (LTA4H [1]): 550 nM; IC50 (LTA4H [2]; [10]): 560 nM; Ratio IC50 PGP/Arg-AMC (LTA4H [3]; Table 2, fold selectivity): 14 and 13.5; IC50 (LTA4H [3]; Table 2, read-out: IC50 PGP): 1110 nM; IC50 (LTA4H [4]; [11]): 82 nM |
| GROα: known chemokine and neutrophil chemoattractant |  |  |  |  |  | ED50 neutrophil shape change (human neutrophils [6]): approximately 0.2 nM |
| IL-8: positive chemoattractant control |  |  |  |  |  | neutrophil chemotaxis (human neutrophils [7]; concentration as low as 10 nM): substantial chemotaxis |
| arginine-threonine-arginine [RTR] |  |  |  |  |  | neutrophil chemotaxis (human neutrophils [7]; graded concentrations up to mM range, 90 min at 37 °C): entirely negative |
